Entries after “also recorded” stand apart in the source; their conditions may differ.
Experiments:
[1] = Blood brain barrier penetration, LC-MS/MS of CSF, plasma and brain; assay type: in vivo; settings: mice, 10 mg/kg dose i.v., CSF and brain 4 hours after administration
Experimental: Samples were collected 4 hours after i.v. administration of 10 mg/kg of Compound 6A in mice. […] Samples were collected 4 hours after i.v. administration of 10 mg/kg of Compound 6B in mice. […] Samples were collected 4 hours after i.v. administration of 10 mg/kg of Compound 6C in mice.
Additionally a selective and sensitive method for detecting the presence of four compounds (Compounds 6A, 6B, 6C & 9) as CypD inhibitors in mouse plasma, brain and artificial cerebrospinal fluid is based on high performance liquid chromatography tandem mass spectrometry. Mass spectra were generated using Micromass Quattro Ultima “triple” quadrupole mass spectrometer equipped with Electrospray ionization interface. The method used for pharmacokinetic studies of compounds in mouse cerebrospinal fluid, plasma, and brain is accurate, precise, and specific with no matrix effect.

CypD PPIase = CypD PPIase (Homo sapiens, UniProt P30405); test: CypD PPIase enzyme activity inhibition (real-time kinetics assay); assay type: biochemical; settings: for Inhibition of CypD PPIase activity (in words): reaction progress curves, 0.39 to 50 uM (Compound 9: 0.19 to 100 uM), 25° C.
Experimental: The ability of CypD inhibitors to inhibit CypD PPIase enzyme activity was determined using a previously utilized “standard” procedure (Kofron, J. L.; Kuzmic, P.; Kishore, V.; Colon-Bonilla, E.; Rich, D. H., Determination of kinetic constants for peptidyl prolyl cis-trans isomerases by an improved spectrophotometric assay. Biochemistry 1991, 30, 6127-34). The results are presented in FIGS. 2A-2D and compared to CsA in FIG. 2E.
Linearity was maintained up to 5 minutes of incubation at 25° C. […] Linearity was maintained up to 5 minutes of incubation at 25° C. […] FIG. 10 show reaction progress curves collected for CypD activity in DMSO alone or at various Compound 6C concentrations ranging from 0.39 to 50 uM. Linearity was maintained up to 5 minutes of incubation at 25° C. […] FIG. 11 show reaction progress curves collected for CypD activity in DMSO alone or at various Compound 9 concentrations ranging from 0.19 to 100 uM. Linearity was maintained up to 5 minutes of incubation at 25° C.
Since inhibition of CypD PPIase activity was essential for potentiation of Aβ cytotoxicity, Aβ-induced cytotoxicity can presumably be decreased if the Aβ-CypD interaction is blocked with small-molecule inhibitors like Compound 9.

SK-N-SH cells [2] = test: Cytochrome c oxidase (CcO) activity in Aβ1-42-treated cells; assay type: cell-based
Experimental: The effect of the CypD inhibitors on cytochrome c oxidase (CcO) was studied. The effect of the CypD inhibitors on Aβ-induced mitochondrial respiratory function was assessed by determining cytochrome c oxidase (CcO) activity. CcO is a vital enzyme associated with the mitochondrial electron transport chain. SK-N-SH cells were treated for 48 hours with 5 μM of oligomer Aβ1-42 in the presence of 10-20 μM of CypD inhibitor C-9, after which samples were tested for CcO enzyme activity levels.

[3] = target: human recombinant CypD protein (Homo sapiens, UniProt P30405); test: Surface plasmon resonance (SPR) binding to immobilized CypD; settings: for Kd: 1:1 Langmuir binding fit, CypD immobilized on CM5 chip, read-out: KD (equilibrium dissociation constant); for Binding to CypD (in words): dose dependent
Experimental: In vitro SPR was used to verify the ability of the CypD inhibitors to bind to human recombinant CypD protein, which correlates with its potential CypD inhibitory activity.
Surface plasmon resonance (SPR) analysis of CypD-Pyrimidine derivative binding interaction, where the globally fit data (black lines) were overlaid with experimental data (greyish lines). Human recombinant CypD protein (10 μg/ml) was immobilized directly on the hydrophilic carboxy methylated dextran matrix of the CM5 sensor chip (Biacore-3000) using the standard primary amine coupling reaction according to standard procedures. Compound 9 (2.5, 5, 10, 15, 20 μM) was injected at a flow rate of 40 μl/min for the determination of the kinetic and equilibrium constants. All data analyses were carried out using BIA evaluation software, and sensor grams were processed by automatic correction for nonspecific bulk refractive index.
The equilibrium dissociation constant (KD) was determined using a 1:1 Langmuir binding fit model and the association (kon) and dissociation (koff) rate constants were determined using Equations (1) and (2). dR/dt=kon×C×(Rmax−R)−koff×R (1)
Where R represents the response unit, C is the concentration of the analyte, and KD=koff/kon (2)
The obtained results were evaluated by χ^2 analysis and the kinetic parameters for Compound 9 are provided.

SK-N-SH cells [4] = test: Aβ-induced neuronal cell death, MTT reduction assay; assay type: cell-based; settings: 10 and 20 μM
From the text: Assays examined the effect of the CypD inhibitor compounds on Aβ-induced neuronal cell death, commonly observed in AD. […] The addition of various dosages of inhibitor to the cells in the presence of Aβ1-42 increased cell viability. […] Thus, this evidence provides support that inhibition of CypD with specific inhibitors can provide a beneficial and powerful therapeutic tool in AD treatment.

SK-N-SH cells [5] = test: MTT reduction cell viability assay (toxicity of inhibitor alone); assay type: cell-based; settings: 0, 5, 10, 25, 50, and 100 μM in healthy SK-N-SH cells
From the text: The effect of the CypD inhibitors on cell viability was studied. Excellent reversal effects of the CypD inhibitor on Aβ-affected processes were observed, including diminished mitochondrial swelling, and enhanced CcO activity and ATP production, assessment of the overall cell health of SK-N-SH cells treated with the CypD inhibitors were studied. A wide dosing range was utilized to examine the effect of the CypD inhibitors on cell viability using an MTT (3-(4,5-dimethylthiazol-2-yl)-2,5-diphenyltetrazolium_bromide) reduction assay (0, 5, 10, 25, 50, and 100 μM of inhibitor diluted in cell culture medium).

SK-N-SH cells [6] = test: Cellular ATP levels in Aβ1-42-treated cells; assay type: cell-based; settings: 48 hours
Experimental: The effect of the CypD inhibitors on the levels of adenosine-5′-triphosphate (ATP) was studied. To determine the effect of the CypD inhibitors on Aβ-induced energy metabolism impairment, cellular ATP levels were analyzed. SK-N-SH cells were exposed to 5 μM of Aβ1-42 in the presence of 10-20 μM of Compound 9. After 48 hours, we measured the ATP concentrations in the cell lysates.

cortical mitochondria = test: Calcium-induced mitochondrial swelling assay; set-up: species or system mice; settings: mouse cortical mitochondria treated with Ca2+, compound added dose-dependently
From the text: Mitochondrial swelling in response to calcium was also studied. It is known that CypD-deficient cortical mitochondria are resistant to Aβ- and calcium (Ca^2+)-induced mitochondrial swelling and mitochondrial permeability transition. […] In order to determine the relationship between Ca^2+ and mitochondrial swelling, cortical mitochondria were isolated from mice and subjected to a swelling assay. Mitochondria treated with Ca^2+ experienced excessive swelling.
The fact that brain mitochondrial swelling was not affected by the inhibitors alone implies a symbiotic relationship between Ca^2+ and the inhibitor.

Sequence of human recombinant CypD protein (P30405 30-207): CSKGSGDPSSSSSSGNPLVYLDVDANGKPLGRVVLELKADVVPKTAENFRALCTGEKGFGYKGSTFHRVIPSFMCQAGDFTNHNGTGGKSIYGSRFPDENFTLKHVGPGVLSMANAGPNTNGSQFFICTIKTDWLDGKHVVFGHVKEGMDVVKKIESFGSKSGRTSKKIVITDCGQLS
Sequence of CypD PPIase (P30405 30-207): as above

Row | Structure (SMILES) | Blood-brain barrier penetration [1] | Inhibition of CypD PPIase activity (in words) (CypD PPIase) | Aβ-induced mitochondrial dysfunction (cytochrome c oxidase and ATP levels) (SK-N-SH cells [2]) | Kd [3] [nM] | Binding to CypD (in words) [3] | Cell viability in the presence of Aβ1-42 (MTT reduction) (SK-N-SH cells [4]) | Cell viability (MTT reduction), inhibitor alone (SK-N-SH cells [5]) | ATP levels in Aβ-treated cells (SK-N-SH cells [6]; 5 μM Aβ1-42, 10-20 μM compound, cell lysates) | ATP levels in cells exposed to inhibitor versus vehicle-treated cells without Aβ1-42 (SK-N-SH cells [6]; 10-20 μM compound) | IC50 (CypD PPIase; real time fluorescence monitoring, read-out: IC50 inhibiting PPIase activity of CypD) [nM] | Calcium-induced mitochondrial swelling (cortical mitochondria) | CcO activity in Aβ-treated cells (SK-N-SH cells [2]; 5 μM oligomer Aβ1-42, 10-20 μM inhibitor, 48 hours)
1 | CCOC(=O)C1=C(C)N=C2SC=C(CCc3ccccc3)N2C1c1ccc(F)cc1 (centres unmarked) [Compound 6C] | penetrate the blood-brain barrier | inhibits CypD activity; also recorded: effective in reducing CypD peptidyl prolyl isomerase enzyme activity | abolished Aβ-induced mitochondrial dysfunction |  |  |  |  |  |  |  |  | 
2 | CCOC(=O)C1=C(C)N=C2SC=C(CCc3ccccc3)N2C1c1ccc(O)cc1 (centres unmarked) [Compound 6B] | penetrate the blood-brain barrier | inhibits CypD activity; also recorded: effective in reducing CypD peptidyl prolyl isomerase enzyme activity | abolished Aβ-induced mitochondrial dysfunction | 248 | high binding affinity |  |  |  |  |  |  | 
3 | Cc1nc(-c2ccc(OCC(C)C)c(C#N)c2)sc1C(=O)Nc1ccc(S(N)(=O)=O)cc1 [Compound 9] | penetrate the blood-brain barrier | inhibits CypD activity; also recorded: effective in reducing CypD peptidyl prolyl isomerase enzyme activity | abolished Aβ-induced mitochondrial dysfunction | 149 | high binding affinity | significant effect on cell health | no significant effect | rescued ATP concentrations | comparable to those of vehicle-treated cells | 1490 ± 200 | swelling was diminished | rescued CcO activity
4 | CCOC(=O)C1=C(C)N=C2SC=C(CCc3ccccc3)N2C1c1cccc([N+](=O)[O-])c1 (centres unmarked) [Compound 6A] | penetrate the blood-brain barrier | inhibits CypD activity; also recorded: effective in reducing CypD peptidyl prolyl isomerase enzyme activity | abolished Aβ-induced mitochondrial dysfunction |  |  |  |  |  |  |  |  | 

Reference: patent US9738615B2, “Cyclophilin D inhibitors” (The University of Kansas, priority 2014, dated 2017)
